One data set concerns the target hERG potassium channel (Homo sapiens, UniProt Q12809). Briefly: In vitro hERG experiment (whole-cell patch clamp). Format: cell-based. As to conditions: for IC50: whole-cell patch clamp, tail current, room temperature. How it is done: Extracellular fluid: 140 mM NaCl, 3.5 mM KCl, 1 mM MgCl2, 2 mM CaCl2, 10 mM Glucose, 10 mM HEPES, and 1.25 mM NaH2PO4, with the pH adjusted to 7.4 by NaOH.
Under an inverted microscope, recording electrodes were controlled by a glass electrode micromanipulator (micromanipulation) to contact with the cell. A negative voltage was applied to form a GΩ seal. After forming the GΩ seal, a rapid capacitance compensation was given. Under the continuous negative voltage, the cell membrane was ruptured to establish a whole-cell recording mode. In the whole-cell recording mode, a slow capacitance compensation was given, and the values of membrane capacitance and series resistance were recorded.
Voltage stimulation scheme for cellular hERG potassium current: the cell membrane clamping voltage was -80 mV; the voltage was first elevated from -80 mV to +30 mV, held for 2.5 s, and rapidly changed to and held at -50 mV for 4 s, thus exciting the hERG channel tail current. Data were acquired every 10 s. Leak current detection was performed at -50 mV.
The coverslip with seeded cells was placed in the recording chamber of the inverted microscope. Negative control and test compounds flowed through the recording chamber in an ascending order of concentration by gravity perfusion to quickly act on the cells. During the recording, the extracellular fluid was continuously circulated by a vacuum pump. The current detected in a cell in the negative control was used as the background for the cell. Each compound concentration was allowed to act for 5 min or until the current was stabilized. All experiments were performed at room temperature.
The current of each compound concentration was first normalized according to (peak tail current compound)/(peak tail current vehicle), and then the corresponding inhibition rate was calculated according to (1 - (peak tail current compound)/(peak tail current vehicle)). Basic statistics were calculated for each concentration, including mean, standard deviation (SD), standard error (SE), and replicates (n). […] Curve fitting and calculation of IC50 were performed by GraphPad Prism 5.0 software.
For orientation: The hERG channel carries a current that helps repolarise heart muscle cells.

The target in data set [1] is T1, 5-HT1A (Homo sapiens, UniProt P08908).
T1 sequence (P08908 1-422): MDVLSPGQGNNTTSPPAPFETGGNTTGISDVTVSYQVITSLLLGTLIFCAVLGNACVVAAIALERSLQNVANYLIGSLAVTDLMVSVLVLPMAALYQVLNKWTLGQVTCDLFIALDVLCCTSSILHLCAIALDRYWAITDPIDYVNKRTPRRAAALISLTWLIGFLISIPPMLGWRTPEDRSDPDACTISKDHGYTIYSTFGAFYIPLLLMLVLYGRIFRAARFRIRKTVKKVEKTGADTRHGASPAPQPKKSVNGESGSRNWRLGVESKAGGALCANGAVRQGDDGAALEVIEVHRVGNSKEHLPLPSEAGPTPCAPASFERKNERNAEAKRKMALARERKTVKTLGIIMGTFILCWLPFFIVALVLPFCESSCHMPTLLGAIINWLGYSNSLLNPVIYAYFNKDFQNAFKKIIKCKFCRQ
Put plainly: In vitro 5HT1A receptor function experiment (cAMP, forskolin-stimulated HEK293/5HT1A cells). On the set-up: expressed in transfected cells; host or cells: HEK293. As to conditions: for EC50: forskolin 1 µM; for Emax: maximum activation rate. The data set is classed as cell-based. As for the experimental part: 1.1.1 Cell information: HEK293/5HT1A: a stably transfected cell strain HEK293/5HT1A constructed by adopting 5HT1A receptor lentivirus to infect HEK293; growth culture medium: DMEM, 10% FBS, and 0.6 µg/mL puro; and cryopreservation culture medium: 70% culture medium, 20% FBS, and 10% DMSO.

The next data set addresses Dopamine D2L receptor (Homo sapiens, UniProt P14416). Put plainly: In vitro dopamine D2L receptor function experiment (cAMP, forskolin-stimulated HEK293/D2L cells). Conditions: for Emax: HEK293, read-out: D2L Emax.
In the next data set the test system is 5HT1A/1B. Conditions: 5HT1A/1B agonist, literature value; cited from earlier work.
Data set [2] concerns the target T1, 5-HT1A. Conditions: literature value; cited from earlier work.
The target of another data set is D2 (Homo sapiens, UniProt P14416). As to conditions: literature value; cited from earlier work.
A further data set concerns the target D3 (Homo sapiens, UniProt P35462). Conditions: literature value; cited from earlier work.
Another data set has as its target T2, Dopamine D3 receptor (Homo sapiens, UniProt P35462).
T2 construct: expressed in transfected cells; host or cells: CHO-K1
Briefly: In vitro dopamine D3 receptor function experiment (CHO-K1/D3/CRE reporter, chemiluminescence). Format: cell-based. As for the experimental part: 3.1.1 Cell information: CHO-K1/D3/CRE constructed by referring to the method in Example 5 of CN114369578A.
The first day: cell plating • (1) The cultured cells were digested with trypsin, and after the digestion was terminated with culture medium, the cell suspension was transferred to a centrifuge tube and centrifuged at 750 rpm for 5 min. • (2) The supernatant was discarded, and the pellet was resuspended in an appropriate amount of plating medium.
The following day: experimental detection • (1) The test compounds were diluted to 0.2 mM with DMSO, and the reference compound dopamine was diluted to 0.02 mM. • (2) Compound dilution (4-fold dilution at 8 concentration points) was performed using Bravo, with the starting concentrations of the test compounds and the reference compound being 5 µM and 500 nM, respectively. […] The program selected was an ultrasensitive chemiluminescence detection program.

The subject of data set [3] is tacrine-induced jaw tremors in rats. Put plainly: Tacrine-induced jaw tremor behavior in rats. The data set is classed as in vivo, Sprague Dawley rats. As for the experimental part: Test compounds: The free bases of Examples 28, 32, and 33 in the present invention, which were self-prepared.
Positive control compound: Rotigotine.
Molding drug: Tacrine, SIGMA, A3773-1G.
Vehicle: Normal saline, Cisen Pharmaceutical Co., Ltd., 2111060723.
Sprague Dawley rats, male, 10/group, Shanghai Slac Laboratory Animal Co., Ltd.
Drug preparation: The test compound was taken, added to the vehicle, and subjected to ultrasonication.
Administration route and method: Administration was performed by intraperitoneal injection.
Administration frequency and duration: single administration.
The rats were stratified according to body weight and then randomly divided into a model group, an administration group, and a control group. The rats were acclimatized for three days before the experiment. On the day of the experiment, the vehicle or drug was first injected intraperitoneally, followed by an intraperitoneal injection of tacrine at a dose of 5 mg/kg (body weight) after 60 min. After administration, the rats were placed in a transparent observation box, and the jaw tremor counting was started 10 min later. The continuous counting duration was 5 min, and the jaw tremor frequency in the rats within 5 min was recorded.
The experimental data were expressed as x ± SEM. Inhibition rate (%) = 100% × (jaw tremor frequency in the rats of the model group - jaw tremor frequency in the rats of the administration group)/jaw tremor frequency in the rats of the model group, where *: p < 0.05, **: p < 0.01, and ***: p < 0.001 vs vehicle.

A short description of data set [4]: In vitro liver microsome stability, human. In general terms: Liver microsomes are vesicles of endoplasmic reticulum, rich in cytochrome P450 enzymes.
Protocol: (§1) • (1) Buffer preparation: 73.21 g of dipotassium hydrogen phosphate trihydrate and 10.78 g of potassium dihydrogen phosphate were dissolved in 4000 mL of ultrapure water. The pH of the solution was adjusted to within 7.40 ± 0.10 using 10% phosphoric acid or 1 M potassium hydroxide, resulting in a final concentration of 100 mM. • (2) Solution preparation and dilution: Stock solutions of the test compounds at a concentration of 10 mM were prepared in dimethyl sulfoxide (DMSO) and stored at 4 °C, and they were diluted into 100 µM working solutions with pure acetonitrile when used. A stock solution of the control compound testosterone at a concentration of 10 mM was prepared in DMSO and stored at -20 °C, and it was diluted into a 400 µM working solution with pure acetonitrile when used. • (3) Termination solution preparation: The termination solution was acetonitrile containing the internal standard buspirone. The prepared termination solution was stored in a refrigerator at 2-8 °C. • (4) Liver microsome solution preparation: Microsomes from various species (CD-1 mouse, SD rat, and human) were diluted into a 20× working solution using 100 mM potassium phosphate buffer. The final concentration of the microsomes in the reaction system was 0.5 mg/mL. • (5) Reduced nicotinamide adenine dinucleotide phosphate (NADPH) regeneration system preparation: Appropriate amounts of nicotinamide adenine dinucleotide phosphate (NADP), glucose-6-phosphate (G6P), magnesium chloride (MgCl2), and glucose-6-phosphate dehydrogenase (G6PDH) were weighed to prepare stock solutions at concentrations of 65.33 mM, 330 mM, 300 mM, and 250 Units/mL, respectively. The four stock solutions described above were each added to an appropriate amount of buffer, and the mixture was mixed well by gently inverting up and down. […] Several incubation plates were prepared and named T0, T5, T10, T20, T40, T60, PB60, and NCF60, respectively. […] The NCF60 plate was incubated for 60 min with potassium phosphate buffer replacing the NADPH regeneration system solution. The PB60 plate was incubated for 60 min with potassium phosphate buffer replacing the liver microsomes. Samples under all conditions were prepared in triplicate.
(§2) 2 µL of the test compound or control compound and 100 µL of microsome working solution (containing 1 mg/mL liver microsome protein) were added to each of the T0, T5, T10, T20, T40, T60, and NCF60 plates, and 2 µL of the test compound and 100 µL of potassium phosphate buffer were added to the PB60 plate. The plates described above were then pre-incubated in a 37 °C water bath for about 5 min.
(§3) After the pre-incubation, 600 µL of the termination solution was first added to the T0 samples, followed by the addition of 98 µL of NADPH regeneration system working solution. The plate was sealed, shaken, and then allowed to wait for simultaneous processing with subsequent samples. Except for the NCF60 plate where 98 µL of potassium phosphate buffer was added to each sample well, 98 µL of NADPH regeneration system working solution was added to each sample well of the other incubation plates to initiate the reaction. In the reaction system, the final concentrations of the test compound and the control compound were 1 µM and 4 µM, respectively, the concentration of the liver microsomes was 0.5 mg/mL, and the final concentrations of DMSO and acetonitrile were 0.01% (v/v) and 0.99% (v/v), respectively.
(§4) After incubation for an appropriate time (such as 5, 10, 20, 40, and 60 min), 600 µL of the termination solution containing the internal standard was added to each test compound sample and control compound well to terminate the reaction. The plates were sealed, shaken well, and then centrifuged at 4000 ×g and 4 °C for 15 min.
Data set [5] is described as follows: In vitro liver microsome stability, SD rat.
Protocol: as §1, §2, §3, §4
Data set [6] in a line: In vitro liver microsome stability, CD-1 mouse.
Protocol: as §1, §2, §3, §4
The mark [7] stands for this setting: human, liver microsomes, pH 7.4.
The mark [8] stands for this setting: SD, rat, liver microsomes, pH 7.4.
The mark [9] stands for this setting: CD-1, mouse, liver microsomes, pH 7.4.

Where “and” joins values, the source holds several entries; their conditions need not be identical. Equal values may be shown once. Where a name gives a salt, the structure may show the parent alone. Read-outs that look alike come from different tables or passages of the source.

In general, IC50 refers to the concentration at which inhibition is half-maximal. As usually defined, the EC50 is the concentration at which the effect is half-maximal. As a reminder, the Emax is the greatest response seen or fitted, relative to the assay's reference. Broadly, the CLint scaled is the capacity of the preparation to metabolise the compound, expressed as a volume cleared per time. A lower CLint scaled goes with greater metabolic stability. As usually defined, the microsomal CLint is a measure of how fast metabolising enzymes remove a compound, apart from limits set by blood flow. A lower microsomal CLint goes with slow turnover. As usually defined, the half-life is the time needed for the level to fall by half in the phase considered.

hERG potassium channel, sequence (Q12809 whole entry): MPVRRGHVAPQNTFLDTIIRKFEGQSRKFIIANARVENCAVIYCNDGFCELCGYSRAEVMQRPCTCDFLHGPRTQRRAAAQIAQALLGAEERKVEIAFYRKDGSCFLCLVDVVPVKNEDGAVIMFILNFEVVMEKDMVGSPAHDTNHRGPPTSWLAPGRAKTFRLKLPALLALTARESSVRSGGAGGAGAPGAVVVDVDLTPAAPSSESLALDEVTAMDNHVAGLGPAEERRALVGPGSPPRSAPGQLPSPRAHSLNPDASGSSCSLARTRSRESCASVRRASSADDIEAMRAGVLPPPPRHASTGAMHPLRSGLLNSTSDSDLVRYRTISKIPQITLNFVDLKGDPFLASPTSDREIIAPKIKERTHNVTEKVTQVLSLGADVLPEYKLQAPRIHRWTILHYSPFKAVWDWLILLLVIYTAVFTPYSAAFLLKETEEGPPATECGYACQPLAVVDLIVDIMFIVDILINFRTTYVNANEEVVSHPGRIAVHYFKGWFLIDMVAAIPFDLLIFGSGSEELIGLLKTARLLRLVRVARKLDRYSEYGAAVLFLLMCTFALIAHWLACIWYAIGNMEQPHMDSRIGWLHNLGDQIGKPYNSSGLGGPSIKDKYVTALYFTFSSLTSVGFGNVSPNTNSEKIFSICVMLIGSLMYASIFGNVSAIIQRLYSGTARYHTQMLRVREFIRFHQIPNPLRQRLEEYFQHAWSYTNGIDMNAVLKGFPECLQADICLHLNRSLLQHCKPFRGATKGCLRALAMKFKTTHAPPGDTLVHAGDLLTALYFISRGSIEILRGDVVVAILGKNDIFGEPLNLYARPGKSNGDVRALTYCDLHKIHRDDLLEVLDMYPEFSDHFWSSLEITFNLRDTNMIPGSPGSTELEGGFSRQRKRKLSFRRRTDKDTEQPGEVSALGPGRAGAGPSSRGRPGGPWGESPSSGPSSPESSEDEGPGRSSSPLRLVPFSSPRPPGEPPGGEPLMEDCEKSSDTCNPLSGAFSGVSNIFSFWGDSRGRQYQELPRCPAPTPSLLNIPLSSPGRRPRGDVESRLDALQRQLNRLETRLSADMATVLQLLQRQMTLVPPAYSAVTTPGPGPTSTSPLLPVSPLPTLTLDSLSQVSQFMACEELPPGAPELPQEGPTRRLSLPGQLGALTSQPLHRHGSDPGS
Dopamine D2L receptor, sequence (P14416 whole entry): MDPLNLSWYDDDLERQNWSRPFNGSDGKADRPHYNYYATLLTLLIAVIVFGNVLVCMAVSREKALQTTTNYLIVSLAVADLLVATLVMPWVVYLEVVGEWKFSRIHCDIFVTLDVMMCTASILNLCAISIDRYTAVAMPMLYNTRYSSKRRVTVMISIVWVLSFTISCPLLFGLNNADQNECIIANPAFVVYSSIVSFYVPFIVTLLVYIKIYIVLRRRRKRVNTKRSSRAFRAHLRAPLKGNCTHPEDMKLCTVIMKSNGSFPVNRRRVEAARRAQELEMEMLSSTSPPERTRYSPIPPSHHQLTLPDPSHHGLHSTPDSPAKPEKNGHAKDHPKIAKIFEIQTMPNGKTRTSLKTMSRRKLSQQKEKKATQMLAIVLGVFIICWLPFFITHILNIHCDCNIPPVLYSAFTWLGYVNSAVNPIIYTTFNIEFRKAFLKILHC
D3, sequence (P35462 whole entry): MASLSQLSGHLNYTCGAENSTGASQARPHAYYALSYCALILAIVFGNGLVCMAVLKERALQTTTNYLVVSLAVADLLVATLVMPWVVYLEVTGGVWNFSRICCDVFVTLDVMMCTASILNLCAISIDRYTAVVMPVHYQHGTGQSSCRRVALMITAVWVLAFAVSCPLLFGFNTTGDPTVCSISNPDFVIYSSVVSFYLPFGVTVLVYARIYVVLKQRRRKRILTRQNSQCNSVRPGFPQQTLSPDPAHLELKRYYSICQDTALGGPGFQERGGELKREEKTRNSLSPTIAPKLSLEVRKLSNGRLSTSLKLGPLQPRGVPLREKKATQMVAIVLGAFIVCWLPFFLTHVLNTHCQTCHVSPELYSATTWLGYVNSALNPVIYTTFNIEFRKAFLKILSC
T2 sequence (P35462 whole entry, species assumed): as the sequence (P35462 whole entry) above
D2, sequence (P14416 whole entry): as the sequence (P14416 whole entry) above
Protocol for Dopamine D2L receptor: • (1) Compound preparation: The test compounds and dopamine were diluted to a concentration of 200 nM for later use. • (2) Experimental buffer preparation: The 5× stimulation buffer was diluted to 1× with ddH2O, and IBMX was added to a final concentration of 0.5 mM. The mixture was mixed well for later use. • (3) The cells were digested with trypsin, and centrifugation was performed after the digestion was terminated. The cell pellet was resuspended in 10 mL of pre-warmed HBSS and centrifuged again. Then, 1 mL of stimulation buffer was added for resuspension, and 20 µL of the cell suspension was taken for cell counting. • (4) An appropriate amount of the cell suspension was taken and diluted to 0.4 × 10^6 cells/mL, and 5 µL of the diluted cell suspension was added to each well of a cell plate and centrifuged at 1000 rpm for 1 min. • (5) Compound dilution and transfer using bravo: The compounds were diluted 4-fold to obtain 8 concentration points in the compound plate. The diluted compounds in the whole plate were then transferred to a 384-well white plate using bravo and centrifuged at 1000 rpm for 1 min. • (6) The experimental plate was sealed and incubated at room temperature for 15 min. • (7) Forskolin, prepared with DMSO, was added at 25.1 nL/well using Tecan D300e, with a mother liquor concentration of 0.2 mM and a final concentration of 0.25 µM, followed by centrifugation at 1000 rpm for 1 min. • (8) The plate was sealed and incubated at room temperature for 45 min. • (9) cAMP standard curve preparation: A 4-fold serial dilution was performed to obtain 8 concentration points from a starting concentration of 2848 nM. Then, 10 µL of each dilution was taken and added to the experimental plate, with a maximum concentration of 712 nM. • (10) 5 µL of cAMP-d2 solution (stock solution diluted at 1:20 with lysis buffer) was added to the experimental plate, and the plate was centrifuged at 1000 rpm for 1 min. • (11) Then, 5 µL of Anti-cAMP-Cryptate solution (stock solution diluted at 1:20 with lysis buffer) was added to the experimental plate, and the plate was centrifuged at 1000 rpm for 1 min. • (12) The experimental plate was incubated at room temperature for 45 min and centrifuged at 1000 rpm for 1 min before reading. • (13) Plate reading was performed using Envision, with excitation light at 320 nm and emission lights at 620 nm and 665 nm. The derived data were analyzed, and the maximum activation rates Emax and EC50 of the compounds were calculated.

In turn, `CCCN(CC1CCN(C(=O)OC)CC1)[C@@H]1CCc2nc(N)sc2C1` (stereo in doubt) [Comparative Example 3, Methyl (R)-4-(((2-amino-4,5,6,7-tetrahydrobenzo[d]thiazol-6-yl)(propyl)amino)methyl)piperidine-1-carboxylate hydrochloride, reference compound] came in with a concentration for half-maximal inhibition (IC50) at hERG potassium channel of 5100 nM. Also, at 5-HT1A [1], the response was half-maximal at 203 nM (EC50) and the Emax was found to be 97%. Also, on Dopamine D2L receptor, the EC50 amounted to 0.95 nM and the maximal response (Emax) amounted to 112%.

With `c1cc2c(c(N3CCNCC3)c1)OCCO2` [Eltoprazine], the EC50 with 5HT1A/1B is 148 nM.

Regarding `CCCN(CC1CCN(C(=O)OC)CC1)C1CCc2nc(N)sc2C1` (stereo not shown) [Comparative Example 2, Methyl 4-(((2-amino-4,5,6,7-tetrahydrobenzo[d]thiazol-6-yl)(propyl)amino)methyl)piperidine-1-carboxylate hydrochloride, reference compound], half-maximal inhibition at hERG potassium channel (IC50) required 4700 nM. At 5-HT1A [1], this compound showed a concentration giving a half-maximal response (EC50) of 247 nM and a maximal effect (Emax) of 95.4%. On Dopamine D2L receptor, the EC50 amounted to 1.68 nM and the Emax worked out at 112%.

As for `O=c1[nH]c2cccc(N3CCN(Cc4cccc(-c5ccccc5)c4)CC3)c2o1` [Bifeprunox], the EC50 is 47.8 nM on 5-HT1A [2] and 39.8 nM at D2. The IC50 on D3 was 15.2 nM.

As for `CCCN(CC1CCN(C(=O)N2CCOCC2)CC1)[C@H]1CCc2nc(N)sc2C1` [Example 33, (S)-(4-(((2-Amino-4,5,6,7-tetrahydrobenzo[d]thiazol-6-yl)(propyl)amino)methyl)piperidin-1-yl)(morpholino)methanone], the concentration for a half-maximal effect (EC50) at Dopamine D3 receptor (forskolin 0.4 µM) is 1.1 nM; at 5-HT1A [1] it was 162 nM. In addition, the Emax is 107% on Dopamine D3 receptor (maximum activation rate) and 92.7% on 5-HT1A [1]. For the same compound, the “hERG inhibition: functional activity lower than that of the pharmacodynamic target” value on hERG potassium channel (hERG IC50 versus activity at pharmacodynamic target) is not below 1000 fold. The IC50 against hERG potassium channel was 20000 nM and 20200 nM. Besides, the “Inhibition of tacrine-induced jaw tremors in rats” value in data set [3] (1 mg/kg, 3 mg/kg, and 10 mg/kg, intraperitoneal, single administration, free base, compared to the model group) was “significantly inhibited”. For the same compound, the Minimum effective dose entry in data set [3] (tacrine-induced jaw tremor in rats, compared with rotigotine) is reported as “lower than that of the positive control drug”. Moreover, the “CLint(liver)” value in [4] (Human liver microsomes) came to 2.6 mL/min/K g; in [5] (SD rat liver microsomes), 27.3 mL/min/K g; in data set [6] (CD-1 mouse liver microsomes), 50.0 mL/min/K g. For the same compound, the CLint scaled at 1 µM in data set [4] (setting [7]) is less than 8.9 mL/min/kg; in data set [5] (setting [8]), 23.7 to 129 mL/min/kg; in data set [6] (setting [9]) it was 38.6 to 210 mL/min/kg. Also, the microsomal CLint at 1 µM in [4] (setting [7]) came to 2.9 µL/min/mg; in data set [5] (setting [8]), 15.2 µL/min/mg; in [6] (setting [9]), 12.6 µL/min/mg. Also, the half-life at 1 µM in data set [5] (setting [8]) is 1.52 h.

At 5-HT1A [1], `CCCN(CCN1CCN(c2cccc(Cl)c2Cl)CC1)[C@H]1CCc2nc(N)sc2C1` [Comparative Example 1, (S)-N^6-(2-(4-(2,3-Dichlorophenyl)piperazin-1-yl)ethyl)-N^6-propyl-4,5,6,7-tetrahydrobenzo[d]thiazole-2,6-diamine hydrochloride, reference compound] yielded an EC50 of 203 nM and an Emax of 99.1%. Further, at Dopamine D2L receptor, the EC50 amounted to 0.25 nM and the Emax came out at 101%.

Take `Cc1ccc(CNCC2(F)CCN(C(=O)c3ccc(F)c(Cl)c3)CC2)nc1` [NLX-112]: on 5-HT1A [2], the “5-HT1A Emax” value is recorded as 84%.

With `CN1CCN(c2cccc3[nH]c(=O)oc23)CC1` [Pardoprunox], the EC50 at 5-HT1A [2] is 500 nM; at D2, 10 nM; at D3, 0.6 nM.

The values are drawn from patent EP4570798A1, “AROMATIC HETEROCYCLIC CYCLOHEXYL AMINOALKYL PIPERIDINE DERIVATIVE, PREPARATION METHOD AND USE THEREOF” (Jiangsu NHWA Pharmaceutical Co., Ltd, priority 2022, dated 2024).
